Measured values from US9040671B2, “Methods for cancer management targeting Co-029” (Institut National de la Sante et de la Recherche Medicale …, priority 2010, dated 2015).

Assays:
[1] = tested on: Is1-Co029 cells; test: 2D cell motility on collagen I by videomicroscopy, Is1-Co029 cells; type: cell-based, human
Method: Cells and cell culture. The cell lines Isreco1, Isreco2 and Isreco3 were initially derived from a primary human colon cancer surgical specimen (Isreco1)(Duke's C, class III) and its corresponding liver and peritoneal metastases (Cajot et al., 1997). These cells were cultured in Dulbecco's modified Eagle's medium (DMEM) supplemented with 10% FCS, glutamax and antibiotics (all from Invitrogen). For experiments, tissue culture plastics were coated with rat tail Collagen I (BD Biosciences) for 1 hour at 50 μg/ml and rinsed with PBS.
Construction of the Co-029 and CD81 lentiviral vector and transduction of Isreco1 cells. Since Isreco1 cells were not efficiently transfected by using non retroviral methods we constructed the TRIPΔ3-EF1α-Co029 and TRIPΔ3-EF1α-CD81 plasmids by inserting the human Co029 and the human CD81 cDNA coding sequence in TRIPΔ3-EF1α vectors. […]. Is1-Co029 and Is1-CD81 cells were obtained by transducing Isrecol cells twice with concentrated lentiviral particles. Is1-Co029low cells were obtained following a single transduction.
Videomicroscopy. Analysis of 2D cell motility on collagen I films was performed using phase contrast on an inverted microscope (Axiovert 200; Zeiss,Oberkochen, Germany) equipped with an environmental chamber with 5% CO2 in air at 37° C. The microscope was driven by the Metamorph software (Roper Scientific),and images were recorded with a Coolsnap HQ camera (Roper Scientific). Stacks of phase contrast images were collected every 15 min for 24 h at ×200 magnification. Cell migration was quantified using the manual tracking plugin of ImageJ (Rasband, 2007) Raw data were transfered to Excel for speed calculations and statistical analysis was performed by the non parametric Mann-Whitney test in Graphpad. For each position at least 10 cells were analyzed. Experiments were repeated from 2 to 10 times to verify the robustness of the results and the stability of the measurements.
For silencing experiments, motility measures were performed 48 hours after RNAi treatments. […]

[2] = tested on: E-cadherin; test: Flow cytometry of surface E-cadherin after RNA silencing; type: cell-based, human; conditions: Is1-Co029 cells cultured on collagen I
Method: Immunofluorescence. For flow cytometry analysis of cell surface molecules, cells were detached using a non-enzymatic solution (Invitrogen), washed and stained with 10 μg/ml of primary antibody. After washes in culture medium, cells were incubated with 10 μg/ml-1 FITC-labelled secondary antibody (Beckman Coulter), washed again three times and fixed with 1% formaldehyde in PBS. All incubations were performed for 30 min at 4° C. Analysis of cell-surface staining was performed using a FACScalibur flow cytometer (Becton-Dickinson, San Jose, Calif., USA).
(§1) RNA silencing. Cells (1-3×10^5 cells in DMEM medium) were reverse transfected with synthetic si-RNA oligonucleotides using Interferrin (Ozyme) according to manufacturer's protocol.
(§2) 6, 12 or 24 well cell culture plates were coated with rat tail collagen I. Plates were rinsed in PBS. One μl of the siRNA (10 μM) oligonucleotide mix was added to 96 μl DMEM without serum and 3-5 μl Interferrin and incubated at room temperature in each well during 20 min to allow formation of transfection complexes. Cells detached by trypsin-EDTA were layered at appropriate concentration in 400 μlDMEM medium with serum (the final concentration of si-RNA was 20 nM).

[3] = tested on: p120-catenin; test: Flow cytometry of p120-catenin in permeabilized cells after RNA silencing; type: cell-based, human; conditions: Is1-Co029 cells on collagen I, 48 hours after silencing
Method: For intracellular cytometry, cells were detached using trypsin or scrapped in PBS (4° C.) then fixed for 20 min at 4° C. with 1% formaldehyde in PBS. After centrifugation, cells were incubated in methanol 100% for 10 min at −20° C. then washed in PBS and stained with 10 μg/ml of primary antibody. After washes in PBS, cells were incubated with 10 μg ml FITC-labelled secondary antibody (Beckman Coulter), washed again three times and immediately analysed.
as §1, §2

[4] = tested on: Is1-Co029 tumor cells; test: Effect of antiCo-029 antibodies on subcutaneous tumor growth; type: in vivo, mice; conditions: 1 mg i.p. biweekly; for Tumor growth inhibition (T/C %): vs PBS control
Method: Effect of antiCo-029 antibodies on subcutaneous tumor growth. In order to realize the animal experiments, a large amounts of purified mAbs was prepared. The yield of mAb TS29.2 (IgG2b) was of approximately 5 mg purified mAb/ml ascitis. Mice produce a mean of 10 ml ascitis/mouse.
Ascitis were clarified by centrifugation and 0.45 μm filtered. The mAbs were purified by using the Biosepra MEP HyperCel* Hydrophobic Charge Induction Chromatography (HCIC) Sorbent, dialysed against PBS and the purity checked by gel electrophoresis and Coomassie Blue coloration. Fractions were aliquoted and frozen at −20° C.
The effect of the antibodies on tumor growth was evaluated by subcutaneous implantation of tumor cells issued from colon carcinoma cell lines, followed by repeated injections of monoclonal antibodies with appropriate controls.
Ten Nude mice were injected subcutaneously with 10^7 Is1-Co029 tumor cells and divided in two groups, antibody treated and PBS control. Each group received an i.p. injection of either 1 mg Ts29.2 or the same volume of PBS and biweekly subsequent injections of 1 mg Ts29.2 or PBS i.p., for a total of nine injections. The size of the tumor was determined by the formula (π/6×length×width×thickness).
Tumor growth inhibition (T/C %) was defined as the ratio of the median tumor volume for the treated vs. control group. It will be calculated as T/C %=[(median tumor volume of treated group at day X)/(median tumor volume of control group at day X)]×100.

## si-RhoA: si-RNA to RhoA, GAACUAUGUGGCAGAUAUCdTdT (SEQ ID NO: 23), Dharmacon (listed as RNA, chemistry not fully specified) [reference compound]
[1]; sparse cells on collagen I, agent alone
  effect on motility of Is1-Co029 cells, in words: same effect on motility as p120-catenin silencing

## si-Co029: si-RNA to Co-029, GGUAUCCUAGGAGCUGUUUdTdT (SEQ ID NO: 10) (listed as RNA, chemistry not fully specified)
[1]; cells silenced for p120ctn
  effect on the acceleration of Is1-Co029 cells induced by si-p120, in words: reversed
[1]; co-silencing with si-Ecad
  effect on the increased motility induced by si-Ecad, in words: suppressed

## si-p120: si-RNA to p120ctn; si-p120a GCCAGAGGUGGUUCGGAUAdTdT (SEQ ID NO: 20) used throughout the study (listed as RNA, chemistry not fully specified)
[2]
  reduction of surface E-cadherin: 50%
[3]
  reduction of the amount of p120ctn: 80%

B1: Ts29.2: murine monoclonal antibody against Co-029 obtainable from hybridoma CNCM I-4047; VH SEQ ID NO: 1, VL SEQ ID NO: 5 (antibody, V domains shown)
VH: EVKVVESGGGLVQPGGSLRLSCATSGFTFTDYYMSWVRQPPGKALEWLGFIRNRVSGYTTEYSASVQGRFTISRDNSQSILYLQMNTLRAEDSATYYCARDHYGNFAMDYWGQGTSVTVSS
VL: DIQMTQSSSSFSVSLGDRVTITCKASEDIYNRLAWYQQKPGNAPRLLISGATSLETGVPSRFSGSGSGKDYTLSITSLQTEDVASYYCQQYWSTPFTFGSGTKLEIK
modifications: Synthetic VH; Synthetic VL
[4]; Nude mice
  growth of Is1-Co029 cells (subcutaneous tumor), in words: inhibits significantly
[4]; day 43 (J43), nine injections
  Tumor growth inhibition (T/C %): 36%
[4]; day 50 (J50), nine injections
  Tumor growth inhibition (T/C %): 35%
[4]; day 50, nine injections, PBS control 557±141.6
  mean tumor size: 195.7±47.7 mm^3
